Experimental data published in patent US9290765B2, “Protection against endothelial barrier dysfunction through inhibition of the tyrosine kinase abl-related gene (ARG)” (VERENIGING VOOR CHRISTELIJK HOGER ONDERWIJS, …, priority 2011, dated 2016).

Experiments:
HUVECs [1] = assay: Electrical Cell-substrate Impedance Sensing (ECIS) of HUVEC monolayers, thrombin stimulation; format: cell-based, human
Protocol: (§1) For ECIS measurements, cells were trypsinized and seeded in 1:1 density on gelatine-coated ECIS arrays, each containing 8 wells with 10 gold electrodes/well (8 W10E, Applied Biophysics, Troy, N.Y., USA). Culture medium was refreshed 24 h after seeding, while experiments were performed 48 h after seeding. For pretreatment, designated pharmacological inhibitors or vector were dissolved in M199 supplemented with 1% HSA. After 90 min of pretreatment, thrombin was added directly to the cells for a final concentration of 1 U/mL. During stimulation impedance was measured at multiple frequencies to allow for calculation of resistance attributable to cell-cell adhesion (Rb) and resistance attributable to cell-matrix interaction (alpha). The absolute resistance was measured, while the relative resistance was calculated by normalization to the time point just before addition of the thrombin, to correct for baseline differences.

HUVECs [2] = assay: HRP passage across thrombin-stimulated HUVEC monolayers on porous filters; format: cell-based, human; details: for effect on thrombin-induced HRP passage: HUVECs
Protocol: (§2) Endothelial barrier function was evaluated with horse radish peroxidase (HRP) passage and Electrical Cell-substrate Impedance Sensing (ECIS). For measurement of HRP passage, confluent cells were seeded in 1:1 density on 0.33 cm^2 Costar polycarbonate filters, pore-size 3.0 μm (Corning, Lowell, Mass., USA) and grown to confluence in 4 or 5 days, with change of culture medium every other day. For pretreatment, pharmacological inhibitors or vector were dissolved in M199 supplemented with 1% human serum albumin (HSA, Sanquin CLB), and after removal of culture medium, solutions were added to the upper compartment of the filters during 60 min. For stimulation, pretreatment medium was changed for 1% HSA/M199 containing designated inhibitors, HRP 5 μg/mL (Sigma Aldrich) and thrombin 1 U/mL. 1% HSA/M199 was added to the lower compartment. At indicated time points samples were taken from the lower compartment; HRP concentration in samples was detected by measuring chemoluminiscence after addition of TMB/E (Upstate/Millipore).

[3] = test system: human pulmonary microvascular endothelial cells (HPMVECs); assay: HRP passage over HPMVEC monolayers, thrombin stimulation; format: cell-based; details: imatinib 10 μM, thrombin 1 U/mL
Protocol: as §2

[4] = test system: human pulmonary microvascular endothelial cells (HPMVECs); assay: ECIS of HPMVEC monolayers, thrombin stimulation; format: cell-based; details: imatinib 10 μM, thrombin 1 U/mL
Protocol: as §1

[5] = test system: human foreskin microvascular endothelial cells (HFMVECs); assay: ECIS of HFMVEC monolayers, thrombin stimulation; format: cell-based; details: imatinib 10 μM, thrombin 1 U/mL
Protocol: as §1

HUVECs [6] = assay: Immunofluorescence staining of VE-cadherin, β-catenin and F-actin in thrombin-stimulated HUVECs; format: cell-based, human
Protocol: Cells were seeded on glass coverslips coated with gelatine 1% and pretreated with glutaraldehyde 0.5% (Fluka, St. Gallen, Switzerland). Cells were seeded in 1:1 density and grown to confluence in 48-72 hours. For pretreatment, culture medium was changed to 1% HSA/M199, containing pharmacological inhibitors or vector. After 60 min of pretreatment, thrombin was added directly to the wells for a final concentration of 1 U/mL. At indicated time points, medium was removed and warm paraformaldehyde 2% (Sigma Aldrich) was added to the cells, while kept on ice for 15 min. Cells were permeabilized with Triton X-100 0.05% (Sigma Aldrich) in phosphate-buffered saline (PBS), and incubated overnight with primary antibodies for β-catenin (1:100), VE-cadherin (1:400) or Arg (1:150) in 0.1% HSA/PBS. Subsequently, cells were washed and incubated with FITC-labeled secondary antibodies (Invitrogen, Paisly, United Kingdom) and rhodamine/phalloidin (Invitrogen) for 1 h at room temperature. Cells were washed and sealed in Vectashield mounting medium containing DAPI (Vector Laboratories Inc., Burlingham, Calif., USA) for nuclear staining. Immunofluorescent imaging was performed with an Axiovert 200 Marianas™ inverted wide-field fluorescence microscope, using a 40× Zeiss air lens (NA 0.75) and a 63× Zeiss oil lens (NA 1.4). […]

RhoA = assay: G-LISA RhoA Activity Assay in HUVEC lysates; format: cell-based, human; details: HUVECs; imatinib 10 μM; thrombin 1 U/mL
Protocol: After stimulation, cells were washed with ice-cold PBS and lysed with lysis buffer containing […] Tris/HCl pH 8.0, 0.15M NaCl, 0.09M KCl, 2 mM EDTA/NaOH pH 8.0, 5% Igepal, and 0.5% Triton X-100, further supplemented with PhosStop […] inhibitor (Roche Diagnostics, Mannheim, Germany), and Complete EDTA-free […] inhibitor (Roche Diagnostics). After centrifugation of the cell lysates, the supernatant was snap-frozen and stored at −80° C. Relative RhoA activity was determined with a G-LISA RhoA Activity Assay (Cytoskeleton Inc, Denver, Colo., USA), according to the manufacturers protocol.

[7] = HUVECs transfected with Arg siRNA, imatinib 10 μM, thrombin 1 U/mL
[8] = HUVECs, imatinib 10 μM, thrombin 1 U/mL

Structure (SMILES)	basal endothelial barrier function / basal endothelial resistance (ECIS) (HUVECs [1]; HUVECs, no thrombin)	effect on thrombin-induced decrease in endothelial resistance (thrombin response, words) (HUVECs [1]; HUVECs, thrombin 1 U/mL)	effect on thrombin-induced HRP passage (HUVECs [2]; thrombin 1 U/mL)	HRP passage in Arg deficient cells, imatinib vs DMSO pretreatment (HUVECs [2]; [7])	inhibition at 10 µM (HUVECs [2]; Homo sapiens, HUVEC, read-out: inhibition of thrombin-induced HRP passage)	decrease in normalized resistance in Arg deficient cells, imatinib pretreatment (HUVECs [1]; [7])	thrombin response in c-Abl deficient cells (HUVECs [1]; HUVECs transfected with c-Abl siRNA, imatinib 10 μM, thrombin 1 U/mL)	maximal drop in electrical resistance (HUVECs [1]; HUVECs, imatinib 10 μM, Y-27632 10 μM, thrombin 1 U/mL, FIGS. 2C and D)	maximal decrease in normalized Rb (cell-cell interaction) (HUVECs [1]; [8])	thrombin-induced drop in cell-matrix interaction (alpha) (HUVECs [1]; [8])	maximal decrease in normalized resistance (HUVECs [1]; HUVECs, thrombin 1 U/mL, FIGS. 1B and 1C)	effect on thrombin-induced decrease in endothelial resistance (thrombin response, words) (HUVECs [1]; HUVECs, thrombin 1 U/mL, listed as Imatinib)	thrombin-induced macromolecule passage [3]	maximal drop in endothelial resistance [4]	effects on Rb and alpha ([4]; compared with HUVECs)	thrombin-induced maximal drop in endothelial resistance [5]	thrombin-induced loss of VE-cadherin and β-catenin from the membrane (HUVECs [6]; imatinib 10 μM, thrombin 30 min)	F-actin organization after thrombin (HUVECs [6]; imatinib pretreated, thrombin 15 min)	thrombin-induced RhoA activity (RhoA)
COc1cc2ncc(-c3ccccc3)nc2cc1OC [AG1296]	improved	did not inhibit	–	–	–	–	–	–	–	–	–	–	–	–	–	–	–	–	–
C[C@@H](N)[C@H]1CC[C@H](C(=O)Nc2ccncc2)CC1 [Y-27632]	–	reduced	reduced	–	–	–	–	–	–	–	–	–	–	–	–	–	–	–	–
Cc1ccc(NC(=O)c2ccc(CN3CCN(C)CC3)cc2)cc1Nc1nccc(-c2cccnc2)n1 [imatinib, 4-[(4-methyl-1-piperazinyl)methyl]-N-[4-methyl-3-[[(4-(3-pyridinyl)-2-pyrimidinyl]amino]-phenyl]benzamidemethane sulfonate]	–	reduced	reduced	significantly lower	35 to 44%	no additive effect	still attenuated	−0.44±0.02	−0.87±0.03	attenuation	−0.41±0.03	attenuated	reduced	attenuated	Comparable effects	attenuated	partly reversed	not organized in F-actin stress fibers	not affected
